Assays:
SMARCA2-HiBiT = molecular target: T1, SMARCA2-HiBiT (Homo sapiens, UniProt P51531); assay: SMARCA2 HiBiT degradation assay in HeLa cells; assay type: cell-based; conditions: 18 hours incubation; for DC50: read-out: HeLa_HiBit-SM2 DC50; for Dmax: HeLa, read-out: HeLa-HiBit-SM2 Dmax (%)
T1 construct: SMARCA2-HiBiT knock-in Hela monoclonal cell (CS302366); host or cells: HeLa monoclonal knock-in line (CRISPR HiBiT knock-in at the endogenous locus, heterozygous)
Summary of the method: (§1)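 HeLa monoclonal lines with heterozygous HiBiT knock-in were seeded at 2500 cells/well in EMEM with 10% FBS and treated with compound for 18 h at 37 °C. Remaining tagged protein was measured by Nano-Glo HiBiT lytic luminescence after 30–60 min at RT, and values came from curve fitting.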

SMARCA4-HiBiT = molecular target: T2, SMARCA4-HiBiT (Homo sapiens, UniProt P51532); assay: SMARCA4 HiBiT degradation assay in HeLa cells; assay type: cell-based; conditions: 18 hours incubation; for DC50: read-out: HeLa-HiBit-SM4 DC50; for Dmax: HeLa, read-out: HeLa-HiBit-SM4 Dmax (%)
T2 construct: SMARCA4-HiBiT knock-in Hela monoclonal cell (CS3023226); host or cells: HeLa monoclonal knock-in line (CRISPR HiBiT knock-in at the endogenous locus, heterozygous)
Summary of the method: as §1

T2 sequence (P51532 whole entry): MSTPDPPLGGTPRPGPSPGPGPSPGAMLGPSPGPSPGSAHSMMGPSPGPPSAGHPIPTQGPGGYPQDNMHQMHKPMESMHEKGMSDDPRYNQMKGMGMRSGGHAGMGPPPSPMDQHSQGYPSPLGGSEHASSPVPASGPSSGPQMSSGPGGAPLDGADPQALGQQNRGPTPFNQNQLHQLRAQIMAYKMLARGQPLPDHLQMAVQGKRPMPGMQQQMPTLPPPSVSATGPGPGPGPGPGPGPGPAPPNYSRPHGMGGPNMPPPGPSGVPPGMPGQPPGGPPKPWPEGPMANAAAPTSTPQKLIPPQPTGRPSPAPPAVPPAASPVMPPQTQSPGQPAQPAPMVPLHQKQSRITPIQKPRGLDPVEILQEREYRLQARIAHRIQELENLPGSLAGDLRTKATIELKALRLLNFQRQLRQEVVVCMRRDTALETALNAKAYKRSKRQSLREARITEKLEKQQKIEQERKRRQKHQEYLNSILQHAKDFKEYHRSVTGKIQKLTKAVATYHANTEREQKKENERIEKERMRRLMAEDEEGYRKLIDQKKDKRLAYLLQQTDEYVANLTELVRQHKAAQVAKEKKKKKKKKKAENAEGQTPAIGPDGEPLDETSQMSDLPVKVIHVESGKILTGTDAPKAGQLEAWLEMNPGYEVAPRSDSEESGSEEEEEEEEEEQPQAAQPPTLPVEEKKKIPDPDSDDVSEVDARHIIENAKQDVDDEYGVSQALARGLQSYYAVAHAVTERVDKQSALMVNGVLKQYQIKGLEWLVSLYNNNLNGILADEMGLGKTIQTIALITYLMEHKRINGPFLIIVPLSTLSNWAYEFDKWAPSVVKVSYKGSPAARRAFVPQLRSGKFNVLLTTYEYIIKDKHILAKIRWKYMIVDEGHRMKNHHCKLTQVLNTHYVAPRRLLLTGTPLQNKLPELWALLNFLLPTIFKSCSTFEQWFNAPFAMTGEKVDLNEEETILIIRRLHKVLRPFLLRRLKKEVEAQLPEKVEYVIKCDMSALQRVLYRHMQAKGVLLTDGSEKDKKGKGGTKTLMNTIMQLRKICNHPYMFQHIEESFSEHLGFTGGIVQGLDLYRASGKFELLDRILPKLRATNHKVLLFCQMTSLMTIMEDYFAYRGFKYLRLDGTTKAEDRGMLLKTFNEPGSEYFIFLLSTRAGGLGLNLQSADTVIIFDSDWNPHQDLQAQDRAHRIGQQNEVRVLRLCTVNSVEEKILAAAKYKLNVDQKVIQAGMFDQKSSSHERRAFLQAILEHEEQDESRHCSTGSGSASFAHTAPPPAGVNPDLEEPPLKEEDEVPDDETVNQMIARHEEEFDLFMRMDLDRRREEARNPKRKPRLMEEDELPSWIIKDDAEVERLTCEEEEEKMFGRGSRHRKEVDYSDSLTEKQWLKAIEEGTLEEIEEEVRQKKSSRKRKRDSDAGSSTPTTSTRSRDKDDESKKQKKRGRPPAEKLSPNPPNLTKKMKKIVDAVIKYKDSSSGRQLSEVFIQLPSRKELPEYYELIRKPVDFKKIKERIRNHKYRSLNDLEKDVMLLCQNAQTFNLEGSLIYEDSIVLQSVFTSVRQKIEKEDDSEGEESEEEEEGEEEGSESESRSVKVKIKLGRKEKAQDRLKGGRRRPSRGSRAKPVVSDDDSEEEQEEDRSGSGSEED
T1 sequence (P51531 whole entry): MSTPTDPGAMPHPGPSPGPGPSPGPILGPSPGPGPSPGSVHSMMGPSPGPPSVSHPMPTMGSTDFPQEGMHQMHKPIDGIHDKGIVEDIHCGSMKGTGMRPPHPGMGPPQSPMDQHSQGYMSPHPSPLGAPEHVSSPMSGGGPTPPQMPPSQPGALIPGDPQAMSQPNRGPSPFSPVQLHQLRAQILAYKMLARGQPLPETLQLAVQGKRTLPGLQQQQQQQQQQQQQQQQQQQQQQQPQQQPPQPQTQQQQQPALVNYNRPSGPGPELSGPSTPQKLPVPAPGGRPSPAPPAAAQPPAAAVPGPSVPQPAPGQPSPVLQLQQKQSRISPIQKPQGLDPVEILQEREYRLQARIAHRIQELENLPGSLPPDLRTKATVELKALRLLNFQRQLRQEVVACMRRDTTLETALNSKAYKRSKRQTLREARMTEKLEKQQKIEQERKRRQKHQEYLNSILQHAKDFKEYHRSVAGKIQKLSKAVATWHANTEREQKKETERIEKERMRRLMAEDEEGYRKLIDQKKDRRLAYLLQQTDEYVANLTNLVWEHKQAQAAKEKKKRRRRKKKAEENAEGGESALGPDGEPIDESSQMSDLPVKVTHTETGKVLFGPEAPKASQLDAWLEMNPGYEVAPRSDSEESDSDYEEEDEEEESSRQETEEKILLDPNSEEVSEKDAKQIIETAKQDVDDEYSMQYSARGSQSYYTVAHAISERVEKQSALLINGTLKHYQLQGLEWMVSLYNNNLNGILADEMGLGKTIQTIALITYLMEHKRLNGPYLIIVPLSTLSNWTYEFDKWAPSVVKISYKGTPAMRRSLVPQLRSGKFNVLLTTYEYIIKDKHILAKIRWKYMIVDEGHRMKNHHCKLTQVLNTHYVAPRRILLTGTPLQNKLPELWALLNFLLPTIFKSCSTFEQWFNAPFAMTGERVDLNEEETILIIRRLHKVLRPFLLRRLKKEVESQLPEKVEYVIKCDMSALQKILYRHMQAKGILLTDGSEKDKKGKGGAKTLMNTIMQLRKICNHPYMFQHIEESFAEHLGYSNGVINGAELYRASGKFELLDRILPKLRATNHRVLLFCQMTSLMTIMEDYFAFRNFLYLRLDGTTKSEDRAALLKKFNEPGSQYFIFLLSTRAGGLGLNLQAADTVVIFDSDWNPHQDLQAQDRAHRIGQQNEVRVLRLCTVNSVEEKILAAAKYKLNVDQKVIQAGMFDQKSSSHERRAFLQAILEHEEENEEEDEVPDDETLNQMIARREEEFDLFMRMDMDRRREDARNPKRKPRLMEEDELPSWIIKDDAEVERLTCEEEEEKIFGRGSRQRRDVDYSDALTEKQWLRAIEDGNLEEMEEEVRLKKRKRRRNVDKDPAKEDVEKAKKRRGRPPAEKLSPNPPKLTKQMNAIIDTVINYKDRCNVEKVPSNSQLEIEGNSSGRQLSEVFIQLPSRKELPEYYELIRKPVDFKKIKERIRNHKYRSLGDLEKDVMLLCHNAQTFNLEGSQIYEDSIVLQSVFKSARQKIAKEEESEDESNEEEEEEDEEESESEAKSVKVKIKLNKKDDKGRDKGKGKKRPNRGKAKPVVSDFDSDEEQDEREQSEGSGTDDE

| SMILES | DC50 (SMARCA2-HiBiT) | Dmax (SMARCA2-HiBiT) | DC50 (SMARCA4-HiBiT) | Dmax (SMARCA4-HiBiT) |
| --- | --- | --- | --- | --- |
| C[C@@H](CN1CCC(N2CCN3c4cc(-c5ccccc5O)nnc4NC[C@H]3C2)CC1)Nc1cccc2c1C(=O)N(C1CCC(=O)NC1=O)C2=O (stereo partly drawn) [Example 71, 2-(2,6-dioxopiperidin-3-yl)-4-(((S)-1-(4-((S)-2-(2-hydroxyphenyl)-5,6,6a,7,9,10-hexahydro-8H-pyrazino[1′,2′:4,5]pyrazino[2,3-c]pyridazin-8-yl)piperidin-1-yl)propan-2-yl)ammo)isoindoline-1,3-dione] | < 0.01 µM | 75 to 85% | < 0.01 µM | 75 to 85% |
| O=C1CCC(N2C(=O)c3ccc(N4CCC(N5C[C@@H]6[C@@H](CN7CCN8c9cc(-c%10ccccc%10O)nnc9NC[C@H]8C7)[C@@H]6C5)CC4)cc3C2=O)C(=O)N1 (stereo partly drawn) [Example 90, 2-(2,6-dioxopiperidin-3-yl)-5-(4-((1R,5S,6s)-6-(((S)-2-(2-hydroxyphenyl)-5,6,6a,7,9,10-hexahydro-8H-pyrazino[1′,2′:4,5]pyrazino[2,3-c]pyridazin-8-yl)methyl)-3-azabicyclo[3.1.0]hexan-3-yl)piperidin-1-yl)isoindoline-1,3-dione] | < 0.01 µM | 50 to 75% | 0.01 to 0.1 µM | 50 to 75% |
| O=C1CCC(N2C(=O)c3ccc(N4CCC5(CC4)CC(CN4CCC(CN6CCN7c8cc(-c9ccccc9O)nnc8NC[C@H]7C6)CC4)C5)cc3C2=O)C(=O)N1 (stereo partly drawn) [Example 150, 2-(2,6-dioxopiperidin-3-yl)-5-(2-((4-(((S)-2-(2-hydroxyphenyl)-5,6,6a,7,9,10-hexahydro-8H-pyrazino[1′,2′:4,5]pyrazino[2,3-c]pyridazin-8-yl)methyl)piperidin-1-yl)methyl)-7-azaspiro[3.5]nonan-7-yl)isoindoline-1,3-dione] | < 0.01 µM | > 85% | < 0.01 µM | > 85% |
| O=C1CCC(N2C(=O)c3ccc(N4CCO[C@@H](CN5C[C@@H]6[C@H](C5)[C@H]6CN5CCN6c7cc(-c8ccccc8O)nnc7NC[C@H]6C5)C4)cc3C2=O)C(=O)N1 (stereo partly drawn) [Example 51, 2-(2,6-dioxopiperidin-3-yl)-5-((S)-2-(((1R,5S,6R)-6-(((S)-2-(2-hydroxyphenyl)-5,6,6a,7,9,10-hexahydro-8H-pyrazino[1′,2′:4,5]pyrazino[2,3-c]pyridazin-8-yl)methyl)-3-azabicyclo[3.1.0]hexan-3-yl)methyl)morpholino)isoindoline-1,3-dione] | < 0.01 µM | > 85% | < 0.01 µM | 50 to 75% |
| CC(CN1CCC(N2CCN3c4cc(-c5ccccc5O)nnc4NC[C@H]3C2)CC1)Oc1ccc2c(c1)CN([C@@H]1CCC(=O)NC1=O)C2=O (stereo partly drawn) [Example 214, (3R)-3-(5-((1-(4-((S)-2-(2-hydroxyphenyl)-5,6,6a,7,9,10-hexahydro-8H-pyrazino[1′,2′:4,5]pyrazino[2,3-c]pyridazin-8-yl)piperidin-1-yl)propan-2-yl)oxy)-1-oxoisoindolin-2-yl)piperidine-2,6-dione] | < 0.01 µM | 75 to 85% | < 0.01 µM | 50 to 75% |
| N#CC1(CN2CCN3c4cc(-c5ccccc5O)nnc4NC[C@H]3C2)CCN(CC2CCN(c3ccc4c(c3)C(=O)N(C3CCC(=O)NC3=O)C4=O)CC2)CC1 (stereo partly drawn) [Example 178, 1-[[1-[2-(2,6-dioxopiperidin-3-yl)-1,3-dioxoisoindol-5-yl]piperidin-4-yl]methyl]-4-[[(10S)-4-(2-hydroxyphenyl)-1,5,6,8,12-pentazatricyclo[8.4.0.02,7]tetradeca-2,4,6-trien-12-yl]methyl]piperidine-4-carbonitrile] | < 0.01 µM | > 85% | < 0.01 µM | 75 to 85% |
| O=C1CCC(N2C(=O)c3cc(F)c(N4CCC(CN5C[C@@H]6[C@H](C5)[C@H]6CN5CCN6c7cc(-c8ccccc8O)nnc7NC[C@H]6C5)CC4)cc3C2=O)C(=O)N1 (stereo partly drawn) [Example 173, 2-(2,6-dioxopiperidin-3-yl)-5-fluoro-6-[4-[[(1S,5R)-6-[[(10S)-4-(2-hydroxyphenyl)-1,5,6,8,12-pentazatricyclo[8.4.0.02,7]tetradeca-2,4,6-trien-12-yl]methyl]-3-azabicyclo[3.1.0]hexan-3-yl]methyl]piperidin-1-yl]isoindole-1,3-dione] | < 0.01 µM | 75 to 85% | 0.01 to 0.1 µM | 50 to 75% |
| O=C1CCC(N2C(=O)c3cccc(N4CCC(CN5CCC(CN6CCN7c8cc(-c9ccccc9O)nnc8NC[C@H]7C6)CC5)CC4)c3C2=O)C(=O)N1 (stereo partly drawn) [Example 127, 2-(2,6-dioxopiperidin-3-yl)-4-(4-((4-(((S)-2-(2-hydroxyphenyl)-5,6,6a,7,9,10-hexahydro-8H-pyrazino[1′,2′:4,5]pyrazino[2,3-c]pyridazin-8-yl)methyl)piperidin-1-yl)methyl)piperidin-1-yl) isoindoline-1,3-dione] | < 0.01 µM | > 85% | < 0.01 µM | 75 to 85% |
| O=C1CCC(N2C(=O)c3ccc(N4CC[C@H](CN5C[C@@H]6[C@H](C5)[C@H]6CN5CCN6c7cc(-c8c(O)cccc8F)nnc7NC[C@H]6C5)[C@@H](F)C4)cc3C2=O)C(=O)N1 (stereo partly drawn) [Example 281, 2-(2,6-dioxopiperidin-3-yl)-5-((3R,4R)-3-fluoro-4-(((1R,5S,6R)-6-(((S)-2-(2-fluoro-6-hydroxyphenyl)-5,6,6a,7,9,10-hexahydro-8H-pyrazino[1′,2′:4,5]pyrazino[2,3-c]pyridazin-8-yl)methyl)-3-azabicyclo[3.1.0]hexan-3-yl)methyl)piperidin-1-yl) isoindoline-1,3-dione] | < 0.01 µM | 75 to 85% | 0.01 to 0.1 µM | ≤ 50% |

Second part, the molecule after the results:

| DC50 (SMARCA2-HiBiT) | Dmax (SMARCA2-HiBiT) | DC50 (SMARCA4-HiBiT) | Dmax (SMARCA4-HiBiT) | SMILES |
| --- | --- | --- | --- | --- |
| < 0.01 µM | > 85% | 0.01 to 0.1 µM | 75 to 85% | O=C1CCC(N2Cc3ccc(N4CC(CN5CCN(C(=O)N6CCN7c8cc(-c9ccccc9O)nnc8NC[C@H]7C6)CC5)C4)cc3C2=O)C(=O)N1 (stereo partly drawn) [Example 107, 3-(6-(3-((4-((S)-2-(2-hydroxyphenyl)-6,6a,7,8,9,10-hexahydro-5H-pyrazino[1′,2′:4,5]pyrazino[2,3-c]pyridazine-8-carbonyl)piperazin-1-yl)methyl)azetidin-1-yl)-1-oxoisoindolin-2-yl)piperidine-2,6-dione] |
| < 0.01 µM | > 85% | < 0.01 µM | > 85% | O=C1CCC(N2C(=O)c3ccc(N4CCC(CN5CC6CC5CC6CN5CCN6c7cc(-c8ccccc8O)nnc7NC[C@H]6C5)CC4)cc3C2=O)C(=O)N1 (stereo partly drawn) [Example 136, 2-(2,6-dioxopiperidin-3-yl)-5-(4-((5-(((S)-2-(2-hydroxyphenyl)-5,6,6a,7,9,10-hexahydro-8H-pyrazino[1′,2′:4,5]pyrazino[2,3-c]pyridazin-8-yl)methyl)-2-azabicyclo[2.2.1]heptan-2-yl)methyl)piperidin-1-yl) isoindoline-1,3-dione] |
| < 0.01 µM | > 85% | < 0.01 µM | > 85% | O=C1CCC(N2C(=O)c3ccc(N4CCC(CN[C@H]5C[C@@H](CN6CCN7c8cc(-c9ccccc9O)nnc8NC[C@H]7C6)C5)CC4)cc3C2=O)C(=O)N1 (stereo partly drawn) [Example 78, 2-(2,6-dioxopiperidin-3-yl)-5-(4-((((1R,3s)-3-(((S)-2-(2-hydroxyphenyl)-5,6,6a,7,9,10-hexahydro-8H-pyrazino[1′,2′:4,5]pyrazino[2,3-c]pyridazin-8-yl)methyl)cyclobutyl)amino)methyl)piperidin-1-yl)isoindolme-1,3-dione] |
| < 0.01 µM | > 85% | < 0.01 µM | > 85% | CC1CN(CC2CCN(c3ccc4c(c3)C(=O)N(C3CCC(=O)NC3=O)C4)CC2)CC(C)N1C(=O)N1CCN2c3cc(-c4ccccc4O)nnc3NC[C@H]2C1 (stereo partly drawn) [Example 266, 3-(6-(4-((4-((S)-2-(2-hydroxyphenyl)-6,6a,7,8,9,10-hexahydro-5H-pyrazino[1′,2′:4,5]pyrazino[2,3-c]pyridazine-8-carbonyl)-3,5-dimethylpiperazin-1-yl)methyl)piperidin-1-yl)-1-oxoisoindolin-2-yl)piperidine-2,6-dione] |
| < 0.01 µM | > 85% | 0.01 to 0.1 µM | 50 to 75% | O=C1CCC(N2C(=O)c3ccc(N4CC[C@H](CN5CCN(C(=O)N6CCN7c8cc(-c9ccccc9O)nnc8NC[C@H]7C6)CC5)[C@@H](F)C4)cc3C2=O)C(=O)N1 (stereo partly drawn) [Example 206, 2-(2,6-dioxopiperidin-3-yl)-5-[(3R,4R)-3-fluoro-4-[[4-[(10S)-4-(2-hydroxyphenyl)-1,5,6,8,12-pentazatricyclo [8.4.0.02,7]tetradeca-2(7),3,5-triene-12-carbonyl]piperazin-1-yl]methyl]piperidin-1-yl]isoindole-1,3-dione] |
| < 0.01 µM | > 85% | < 0.01 µM | > 85% | CC1(C)CN(CC2CCN(c3ccc4c(c3)C(=O)N(C3CCC(=O)NC3=O)C4)CC2)CCN1C(=O)N1CCN2c3cc(-c4ccccc4O)nnc3NC[C@H]2C1 (stereo partly drawn) [Example 105, 3-(6-(4-((4-((S)-2-(2-hydroxyphenyl)-6,6a,7,8,9,10-hexahydro-5H-pyrazino[1′,2′:4,5]pyrazino[2,3-c]pyridazine-8-carbonyl)-3,3-dimethylpiperazin-1-yl)methyl)piperidin-1-yl)-1-oxoisoindolin-2-yl)piperidine-2,6-dione] |

Source: patent US12448389B2, “BRM targeting compounds and associated methods of use” (Prelude Therapeutics Incorporated, priority 2020, dated 2025)
